# Source: patent publication US20250009819A1, “NOVEL PROBIOTICS AND USE THEREOF” (PBLBIOLAB CO., LTD., priority 2021, published 2025)
# How the values were obtained:
# Assay type in all cases: in vivo, C57BL/6 male mice
# healthy animal = assay: Healthy animal: colon parameters; settings: healthy mice, 1×10^9 CFU/mouse orally once a day for 5 days
# Description: To 100 mg of colon tissue, 200 μl of 10 mM potassium phosphate buffer (pH 7.0) containing 0.5% hexadecyl trimethyl ammonium bromide was added and homogenized. Then, the supernatant was obtained by centrifugation for 10 minutes at 4° C. and 10,000 g. A volume of 50 μl of the supernatant was added to 0.95 mk of reaction solution (containing 1.6 mM tetramethyl benzidine and 0.1 mM H2O2), reacted at 37° C., and absorbance was monitored over time at 650 nm.
# (§1) Hippocampus, colon, and spleen tissues were homogenized by adding 1 ml of RIPA buffer (Gibco) containing protease inhibitor cocktail and centrifuged at 4° C., 13000 rpm for 15 min to obtain supernatant. Indicators of this supernatant were measured using an ELISA kit (Ebioscience).
# C57BL/6 male mice (5 weeks old, 19-21 g) were divided (6 mice in each group) and acclimatized to the laboratory for 1 week. The mice were orally administered once a day for 5 days with lactic acid bacteria as a test sample suspended in physiological saline solution at a concentration of 1×10^9 CFU per mouse (NK210 alone (LR): 1×10^9 CFU/mouse, NK219 alone (BL): 1×10^9 CFU/mouse, combined (210+219): 210, 8×10^8 CFU/mouse and 219, 2×10^8 CFU/mouse). […] The day following the conclusion of sample administration, the experimental animals were sacrificed, and samples from the brain hippocampus, colon, and spleen were collected. In the Hippocampus, inflammatory indicators, such as IFN-γ, TNF-α, and IL-10, were measured using ELISA. In the colon, intestinal length and inflammatory indicators, such as IFN-γ, TNF-α, and IL-10, were measured. In the spleen, Th1 cells and Treg cells were measured by FACS (Fluorescence-Activated Cell Sorting).
# [1] = tested on: immunosuppressed animals induced by anticancer drug (cyclophosphamide); assay: Immunosuppressed animals induced by cyclophosphamide: cognitive improvement, hippocampus indicators; settings: cyclophosphamide (CP)-treated mice, 1×10^9 CFU/mouse orally once a day for 5 days; for IFN-γ/IL-10 / IL-10 / Interferon (IFN)-γ / TNF-a/IL-10 / TNF-α: hippocampus
# Description: as §1
# (§2) The Y-shaped maze measurement device is shaped like an alphabetical Y with three arms extending from it, each arm being 25 cm long, 14 cm high, 5 cm wide, and positioned at the same angle. At the end of one arm of the Y-shaped maze, the animal was placed with its head facing out and allowed to freely navigate the arm for 8 minutes. The animal's movements were recorded, and reported as arm entries when the animal entered the arm with its hind paw, and the animal's movement was represented by an alternation, which was defined as one alternation when the animal passed through the three arms in succession. The amount of spontaneous alternation behavior was expressed as a percentage between the actual number of alternations and the maximum possible number of alternations (i.e., the total number of […] minus 2).
# (§3) The experiment was conducted in a box (40×40×40 cm) made so that the outside could not be seen from the inside. Two objects (A, A′) of the same shape and size were fixedly disposed in a box and the mouse was relocated to start from the center of the box. Then, the number of times the mouse made contact with the two objects was recorded for 10 minutes. After 24 hours, one of the two objects was replaced with a new object (A, B). Then, one original object and one new object were prepared, and the animal's exploration time was measured.
# C57BL/6 male mice (5 weeks old, 19-21 g) were divided (6 mice in each group) and acclimatized to the laboratory for 1 week. To induce intestinal and brain diseases, the mice were administered with cyclophosphamide (CP, 150 mg/kg, dissolved in physiological saline) for 1 day, rested for 1 day, and then administered intraperitoneally the next day. Meanwhile, the normal group was administered intraperitoneally with 0.1 ml of physiological saline. […] The day following the conclusion of sample administration, the experimental animals were sacrificed, and samples from the brain hippocampus, colon, and spleen were collected. In the Hippocampus, inflammatory indicators, such as IFN-γ, TNF-α, and IL-10, were measured using ELISA. In the colon, intestinal length and inflammatory indicators, such as IFN-γ, TNF-α, and IL-10, were measured. In the spleen, Th1 cells and Treg cells were measured by FACS (Fluorescence-Activated Cell Sorting).
# [2] = tested on: animals with LPS-induced cognitive impairment; assay: Animals with LPS-induced cognitive impairment: cognitive improvement, hippocampus indicators; settings: LPS-treated mice, 1×10^9 CFU/mouse or sulfasalazine 50 mg/kg once a day for 5 days
# Description: as §1, §2, §3
# (§4) C57BL/6 male mice (5 weeks old, 19-21 g) were divided (6 mice in each group) and acclimatized to the laboratory for 1 week. To induce intestinal and brain diseases, mice were intraperitoneally administered Escherichia coli-derived LPS (10 μg/kg) once daily for 5 days. […] Experimental animals in the normal group were orally administered with a physiological saline solution, which was used to suspend lactic acid bacteria. The day following the conclusion of sample administration, the experimental animals were sacrificed, and samples from the brain hippocampus, colon, and spleen were collected. In the Hippocampus, inflammatory indicators, such as IFN-γ, TNF-α, and IL-10, were measured using ELISA. In the colon, intestinal length and inflammatory indicators, such as IFN-γ, TNF-α, and IL-10, were measured. In the spleen, Th1 cells and Treg cells were measured by FACS (Fluorescence-Activated Cell Sorting).
# [3] = tested on: animals with LPS-induced cognitive impairment; assay: Animals with LPS-induced cognitive impairment: improvement effect in spleen; settings: LPS-treated mice, 1×10^9 CFU/mouse or sulfasalazine 50 mg/kg once a day for 5 days; for Foxp3 (fold change) / Tbet (fold change) / Tbet/Foxp3: spleen qPCR; for IFN-γ/IL-10 / IL-10 / Interferon (IFN)-γ / NK cell cytoxicity (%) / Phagocytosis (%) / TNF-α / TNF-α/IL-10: spleen
# Description: as §1
# mRNA was isolated from spleen tissue using the RNA Isolation Kit: RNeasy Mini Kit (QIAGEN), converted to cDNA, and qPCR was performed to measure the expression rates of Tbet, Foxp3, and glyceraldehyde 3-phosphate dehydrogenase (GAPDH). The reaction product was first treated at 95° C. for 30 seconds, followed by 38 cycles of 5 seconds at 95° C. and 30 seconds at 72° C. for analysis.
# as §4
Substance,Colon (cm) (healthy animal),IFN-γ/IL-10 (healthy animal),IL-10 (healthy animal),Interferon (IFN)-γ (healthy animal),MPO activity (healthy animal),TNF-a/IL-10 (healthy animal),TNF-α (healthy animal),Exoporation (%) (in NOR task) [1],Spontaneous alteration (%) (in Y-maze task) [1],IFN-γ/IL-10 [1],IL-10 [1],Interferon (IFN)-γ [1],TNF-a/IL-10 [1],TNF-α [1],Exoporation (%) (in NOR task) [2],Spontaneous alteration (%) (in Y-maze task) [2],IFN-γ/IL-10 ([2]; hippocampus),IL-10 ([2]; hippocampus),Interferon (IFN)-γ ([2]; hippocampus),TNF-α/IL-10 ([2]; hippocampus),further results
Bifidobacterium longum NK219,5.03 cm,1.52,42.89 pg/mg,64.83 pg/mg,3.53 μUnit/mg,0.37,15.73 pg/mg,78.34%,71.26%,0.44,53.74 pg/mg,23.48 pg/mg,0.20,10.91 pg/mg,76.97%,71.06%,0.50,47.71 pg/mg,24.09 pg/mg,0.24,TNF-α ([2]; hippocampus): 10.72 pg/mg; Foxp3 (fold change) [3]: 1.32 fold change; Tbet (fold change) [3]: 1.27 fold change; Tbet/Foxp3 [3]: 1.05; IFN-γ/IL-10 [3]: 1.32; IL-10 [3]: 8.71 pg/mg; Interferon (IFN)-γ [3]: 11.29 pg/mg; NK cell cytoxicity (%) [3]: 6.93%; Phagocytosis (%) [3]: 34.55%; TNF-α [3]: 4.00 pg/mg; TNF-α/IL-10 [3]: 0.47
Lactobacillus rhamnosus NK210,5.12 cm,1.40,39.95 pg/mg,55.75 pg/mg,4.18 μUnit/mg,0.34,13.40 pg/mg,78.71%,70.94%,0.59,43.29 pg/mg,25.30 pg/mg,0.24,10.44 pg/mg,76.00%,69.36%,0.52,46.94 pg/mg,23.04 pg/mg,0.23,Foxp3 (fold change) [3]: 1.07 fold change; Tbet (fold change) [3]: 1.58 fold change; Tbet/Foxp3 [3]: 1.55; IFN-γ/IL-10 [3]: 1.15; IL-10 [3]: 10.49 pg/mg; Interferon (IFN)-γ [3]: 11.92 pg/mg; NK cell cytoxicity (%) [3]: 7.78%; Phagocytosis (%) [3]: 36.01%; TNF-α [3]: 4.00 pg/mg; TNF-α/IL-10 [3]: 0.38
